{"source": "patent US6914045B2", "about": "“Glycopeptide antibiotics” (Wyeth Holdings Corporation, priority 2001, dated 2005)", "test_in_all_cases": "in vitro antibacterial evaluation, MIC by broth dilution", "type_in_all_cases": "cell-based", "key": {"Enterococcus sp.": {"system": "Enterococcus sp.", "details": "broth dilution, 18 hours at 35° C.", "how_it_was_run": "(§1)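 Following National Committee for Clinical Laboratory Standards recommendations (M7-A2), susceptibility was measured by dilution in Muller-Hinton II […]. Bacteria were seeded at 5×10^5 CFU/mL against compound concentrations from 64 down to 0.06 μg/mL.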"}, "Escherichia coli": {"system": "Escherichia coli", "how_it_was_run": "as §1"}, "Staphylococcus sp.": {"system": "Staphylococcus sp.", "details": "broth dilution, 18 hours at 35° C.; for MIC Staphylococcus aureus (GC 1131): strain GC 1131", "how_it_was_run": "as §1"}, "Streptococcus sp.": {"system": "Streptococcus sp.", "details": "broth dilution, 18 hours at 35° C.", "how_it_was_run": "as §1"}}, "data": [{"smiles": "COc1cccc(C2OC3C(OC4C(CO)OC(Oc5ccc(CC6NC(=O)C(C(C)c7ccccc7)NC(=O)CNC(=O)C(CO)NC(=O)C(C(O)C7CNC(=N)N7C7OC(CO)C(O)C(O)C7O)NC(=O)C(C(O)C7CNC(=N)N7)NC6=O)cc5)C(O)C4O)OC(CO)C(O)C3O2)c1", "note": "(single isomer, unassigned) [Example 137a, Cyclo[glycyl-β-methylphenylalanyl-O-[4-O-[2,3-O-(3-methoxybenzylidene)hexopyranosyl]-hexopyranosyl]tyrosyl-3-(2-iminoimidazolidin-4-yl)seryl-3-(3-hexopyranosyl-2-iminoimidazolidin-4-yl)serylseryl]]", "values": [{"measurement": "MIC Enterococcus avium (GC 4558)", "setting": "Enterococcus sp.; Enterococcus avium (GC 4558)", "result": 64, "unit": "µg/mL"}, {"measurement": "MIC Enterococcus faecalis (ATCC 29212)", "setting": "Enterococcus sp.; Enterococcus faecalis (ATCC 29212)", "result": ">64", "unit": "µg/mL"}, {"measurement": "MIC Enterococcus faecalis (GC 2242)", "setting": "Enterococcus sp.; Enterococcus faecalis (GC 2242)", "result": ">64", "unit": "µg/mL"}, {"measurement": "MIC Enterococcus faecalis (GC 2691)", "setting": "Enterococcus sp.; Enterococcus faecalis (GC 2691)", "result": ">64", "unit": "µg/mL"}, {"measurement": "MIC Enterococcus faecalis (GC 3059)", "setting": "Enterococcus sp.; Enterococcus faecalis (GC 3059)", "result": ">64", "unit": "µg/mL"}, {"measurement": "MIC Enterococcus faecalis (GC 4552)", "setting": "Enterococcus sp.; Enterococcus faecalis (GC 4552)", "result": ">64", "unit": "µg/mL"}, {"measurement": "MIC Enterococcus faecalis (GC 4553)", "setting": "Enterococcus sp.; Enterococcus faecalis (GC 4553)", "result": ">64", "unit": "µg/mL"}, {"measurement": "MIC Enterococcus faecalis (GC 4554)", "setting": "Enterococcus sp.; Enterococcus faecalis (GC 4554)", "result": ">64", "unit": "µg/mL"}, {"measurement": "MIC Enterococcus faecalis (GC 6189)", "setting": "Enterococcus sp.; Enterococcus faecalis (GC 6189)", "result": ">64", "unit": "µg/mL"}, {"measurement": "MIC Enterococcus faecium (GC 2243)", "setting": "Enterococcus sp.; Enterococcus faecium (GC 2243)", "result": ">64", "unit": "µg/mL"}, {"measurement": "MIC Enterococcus faecium (GC 4556)", "setting": "Enterococcus sp.; Enterococcus faecium (GC 4556)", "result": ">64", "unit": "µg/mL"}, {"measurement": "MIC Enterococcus faecium (GC 4557)", "setting": "Enterococcus sp.; Enterococcus faecium (GC 4557)", "result": 16, "unit": "µg/mL"}, {"measurement": "MIC Enterococcus faecalis (ATCC 29212)", "setting": "Enterococcus sp.; strain ATCC 29212", "result": ">64", "unit": "µg/mL"}, {"measurement": "MIC Enterococcus faecalis (GC 2242)", "setting": "Enterococcus sp.; strain GC 2242", "result": ">64", "unit": "µg/mL"}, {"measurement": "MIC Enterococcus faecium (GC 2243)", "setting": "Enterococcus sp.; strain GC 2243", "result": ">64", "unit": "µg/mL"}, {"measurement": "MIC Enterococcus faecalis (GC 2691)", "setting": "Enterococcus sp.; strain GC 2691", "result": ">64", "unit": "µg/mL"}, {"measurement": "MIC Enterococcus faecalis (GC 3059)", "setting": "Enterococcus sp.; strain GC 3059", "result": ">64", "unit": "µg/mL"}, {"measurement": "MIC Enterococcus faecalis (GC 4552)", "setting": "Enterococcus sp.; strain GC 4552", "result": ">64", "unit": "µg/mL"}, {"measurement": "MIC Enterococcus faecalis (GC 4553)", "setting": "Enterococcus sp.; strain GC 4553", "result": ">64", "unit": "µg/mL"}, {"measurement": "MIC Enterococcus faecalis (GC 4554)", "setting": "Enterococcus sp.; strain GC 4554", "result": ">64", "unit": "µg/mL"}, {"measurement": "MIC Enterococcus faecium (GC 4556)", "setting": "Enterococcus sp.; strain GC 4556", "result": ">64", "unit": "µg/mL"}, {"measurement": "MIC Enterococcus faecium (GC 4557)", "setting": "Enterococcus sp.; strain GC 4557", "result": 16, "unit": "µg/mL"}, {"measurement": "MIC Enterococcus avium (GC 4558)", "setting": "Enterococcus sp.; strain GC 4558", "result": 64, "unit": "µg/mL"}, {"measurement": "MIC Enterococcus faecalis (GC 6189)", "setting": "Enterococcus sp.; strain GC 6189", "result": ">64", "unit": "µg/mL"}, {"measurement": "MIC Escherichia coli (ATCC 25922)", "setting": "Escherichia coli; strain ATCC 25922, 18 hours at 35° C.", "result": ">64", "unit": "µg/mL"}, {"measurement": "MIC Escherichia coli (GC 4559)", "setting": "Escherichia coli; strain GC 4559, 18 hours at 35° C.", "result": ">64", "unit": "µg/mL"}, {"measurement": "MIC Escherichia coli (GC 4560)", "setting": "Escherichia coli; strain GC 4560, 18 hours at 35° C.", "result": 8, "unit": "µg/mL"}, {"measurement": "MIC Staphylococcus aureus (GC 1131)", "setting": "Staphylococcus sp.; inoculum 5×10^5 CFU/mL", "result": 32, "unit": "µg/mL"}, {"measurement": "MIC Staphylococcus aureus (ATCC 29213)", "setting": "Staphylococcus sp.; strain ATCC 29213", "result": 32, "unit": "µg/mL"}, {"measurement": "MIC Staphylococcus aureus (GC 1131)", "setting": "Staphylococcus sp.", "result": 32, "unit": "µg/mL"}, {"measurement": "MIC Staphylococcus aureus (GC 3051)", "setting": "Staphylococcus sp.; strain GC 3051", "result": 32, "unit": "µg/mL"}, {"measurement": "MIC Staphylococcus aureus (GC 3053)", "setting": "Staphylococcus sp.; strain GC 3053", "result": 32, "unit": "µg/mL"}, {"measurement": "MIC Staphylococcus aureus (GC 4541)", "setting": "Staphylococcus sp.; strain GC 4541", "result": 16, "unit": "µg/mL"}, {"measurement": "MIC Staphylococcus aureus (GC 4542)", "setting": "Staphylococcus sp.; strain GC 4542", "result": 32, "unit": "µg/mL"}, {"measurement": "MIC Staphylococcus aureus-SMITH (GC 4543)", "setting": "Staphylococcus sp.; strain GC 4543", "result": 16, "unit": "µg/mL"}, {"measurement": "MIC Staphylococcus aureus (GC 4544)", "setting": "Staphylococcus sp.; strain GC 4544", "result": 32, "unit": "µg/mL"}, {"measurement": "MIC Staphylococcus aureus (GC 4545)", "setting": "Staphylococcus sp.; strain GC 4545", "result": 32, "unit": "µg/mL"}, {"measurement": "MIC Staphylococcus haemolyticus (GC 4546)", "setting": "Staphylococcus sp.; strain GC 4546", "result": 16, "unit": "µg/mL"}, {"measurement": "MIC Coagulase Negative Staphylococcus (GC 4547)", "setting": "Staphylococcus sp.; strain GC 4547", "result": 16, "unit": "µg/mL"}, {"measurement": "MIC Coagulase Negative Staphylococcus (GC 4548)", "setting": "Staphylococcus sp.; strain GC 4548", "result": 8, "unit": "µg/mL"}, {"measurement": "MIC Coagulase Negative Staphylococcus (GC 4549)", "setting": "Staphylococcus sp.; strain GC 4549", "result": 8, "unit": "µg/mL"}, {"measurement": "MIC Coagulase Negative Staphylococcus (GC 4551)", "setting": "Staphylococcus sp.; strain GC 4551", "result": 16, "unit": "µg/mL"}, {"measurement": "MIC Coagulase Negative Staphylococcus (GC 6257)", "setting": "Staphylococcus sp.; strain GC 6257", "result": 8, "unit": "µg/mL"}, {"measurement": "MIC Staphylococcus aureus-SMITH (GC 4543)", "setting": "Staphylococcus sp.; strain SMITH GC 4543", "result": 16, "unit": "µg/mL"}, {"measurement": "MIC Streptococcus agalactiae (GC 4564)", "setting": "Streptococcus sp.; Streptococcus agalactiae (GC 4564)", "result": 16, "unit": "µg/mL"}, {"measurement": "MIC Streptococcus pneumoniae (ATCC 6301)", "setting": "Streptococcus sp.; Streptococcus pneumoniae (ATCC 6301)", "result": 8, "unit": "µg/mL"}, {"measurement": "MIC Streptococcus pneumoniae (GC 1894)", "setting": "Streptococcus sp.; Streptococcus pneumoniae (GC 1894)", "result": 4, "unit": "µg/mL"}, {"measurement": "MIC Streptococcus pneumoniae (GC 4565)", "setting": "Streptococcus sp.; Streptococcus pneumoniae (GC 4565)", "result": 16, "unit": "µg/mL"}, {"measurement": "MIC Streptococcus pyogenes (GC 4563)", "setting": "Streptococcus sp.; Streptococcus pyogenes (GC 4563)", "result": 16, "unit": "µg/mL"}, {"measurement": "MIC Streptococcus pneumoniae (ATCC 6301)", "setting": "Streptococcus sp.; strain ATCC 6301", "result": 8, "unit": "µg/mL"}, {"measurement": "MIC Streptococcus pneumoniae (GC 1894)", "setting": "Streptococcus sp.; strain GC 1894", "result": 4, "unit": "µg/mL"}, {"measurement": "MIC Streptococcus pyogenes (GC 4563)", "setting": "Streptococcus sp.; strain GC 4563", "result": 16, "unit": "µg/mL"}, {"measurement": "MIC Streptococcus agalactiae (GC 4564)", "setting": "Streptococcus sp.; strain GC 4564", "result": 16, "unit": "µg/mL"}, {"measurement": "MIC Streptococcus pneumoniae (GC 4565)", "setting": "Streptococcus sp.; strain GC 4565", "result": 16, "unit": "µg/mL"}]}]}
